Entries after “also recorded” stand apart in the source; their conditions may differ.
Legend:
Assay type in all cases: cell-based
Escherichia coli K12 = conditions: E. coli K12; 10 mM compound, 37° C., 18 hours; click with CR110-CCH; confocal microscopy
Escherichia coli O13 = tested on: Escherichia coli O13
[1] = tested on: Legionella pneumophila serogroup 1; conditions: 10 mM compound, 37° C., 24 hours, click with CR110-CCH, confocal microscopy
[2] = tested on: Legionella gormanii (Fluoribacter gormanii)

Compound	detection / labelling signal of bacteria (Escherichia coli K12)	detection / labelling signal of bacteria (Escherichia coli O13)	detection / labelling signal of bacteria [1]	detection / labelling signal of bacteria [2]
C=C(C[C@@H](O)[C@H]1OC(C)(C)O[C@@H]1[C@H](O)CN=[N+]=[N-])C(=O)OCC [Compound 8a, ethyl (4R)-4-{(4R,5R)-5-[(R)-2-azido-1-hydroxyethyl]-2,2-dimethyl-1,3-dioxolan-4-yl)-4-hydroxy-2-methylenebutanoate]	detected; also recorded: clear labelling signal	detected; also recorded: clear labelling signal	detected; also recorded: clear labelling signal	detected; also recorded: clear labelling signal
C=C(C[C@H](O)[C@H]1OC(C)(C)O[C@@H]1[C@H](O)CN=[N+]=[N-])C(=O)OCC [Compound 8b, ethyl (4S)-4-{(4R,5R)-5-[(R)-2-azido-1-hydroxyethyl]-2,2-dimethyl-1,3-dioxolan-4-yl)-4-hydroxy-2-methylenebutanoate]	detected; also recorded: clear labelling signal	detected; also recorded: clear labelling signal	detected; also recorded: clear labelling signal	detected; also recorded: clear labelling signal
